Reference: patent publication US6362166B1, “Antipicornaviral compounds and methods for their use and preparation” (Agouron Pharmaceuticals, Inc., priority 1996, dated 2002)
Read-outs that look alike come from different tables or passages of the source.

Tests used:
[1] = molecular target: T1, Recombinant Rhinovirus 3C protease (RVP) serotype-14 (Human rhinovirus 14, UniProt P03303); experiment: Inhibition of Rhinovirus Protease (fluorescence resonance energy transfer assay), serotype 14; format: biochemical, human rhinovirus (HRV); conditions: for kobs/I: progress curves in enzyme start experiments; for INHIB (percent inhibition): 10 minute preincubation with 50 nM RVP
T1 construct: Recombinant Rhinovirus 3C proteases from serotypes 14, 16, 2 or 89; made in house
Procedure: Stock solution (50 mM, in DMSO) of various compounds were prepared; dilutions were in the same solvent. […] Assays contained 2% DMSO, 50 mM tris pH 7.6, 1 mM EDTA, a compound at the indicated concentrations, approximately 1 μM substrate, and 50-100 nM protease. […] The kobs/I values were obtained from reactions initiated by addition of enzyme rather than substrate. RVP activity is measured in the fluorescence resonance energy transfer assay. […] In the uncleaved peptide, the EDANS fluorescence was quenched by the proximal DABCYL moeity. When the peptide was cleaved, the quenching was relieved, and activity was measured as an increase in fluorescence signal.
In the above table, all data is RVP serotype-14 unless otherwise noted in parentheses. All strains of human rhinovirus (HRV) were purchased from American Type Culture Collection (ATCC), except for serotype 14, which was produced from the infectious cDNA clone constructed and supplied to us by Dr. Roland Rueckert at the Institute for Molecular Virology, University of Wisconsin, Madison, Wisc. […] The data in the column designated kobs/I was measured from progress curves in enzyme start experiments.

HI-HeLa cells = experiment: Cytotoxicity in mock-infected HI-HeLa cells (antirhinoviral assay, XTT); format: cell-based
Procedure: (§1) HI-HeLa cells were infected with HRV-14 at a multiplicity of infection (m.o.i.) of 0.13 (virus particles/cell) or mock-infected with medium only. Infected or mock-infected cells were resuspended at 8×10^5 cells per mL and incubated with appropriate concentration of compounds of formulas I and II. Two days later, XTT/PMS was added to test plates and the amount of formazan produced was quantified spectrophotometrically at 450/650 nm. […] The therapeutic index (TI) was calculated by dividing the CC50 by the EC50.
(§2) All strains of human rhinovirus (HRV) for use in this assay were purchased from American Type Culture Collection (ATCC), except for HRV serotype-14, which was produced from the infectious cDNA clone, constructed and supplied to us by Dr. Roland Rueckert at the Institue for Molecular Virology, University of Wisconsin, Madison, Wisc. HRV stocks were propagated, and antiviral assays were perforemd in HI-HeLa cells (ATCC). Cells were grwon in Minimal Essential Medium, available from Life Technologies, with 10% fetal bovine serum.

HRV-14 = experiment: Antirhinoviral HI-HeLa Cell Culture Assay (Cell Protection Assay, XTT dye reduction); format: cell-based, human rhinovirus (HRV) serotype-14; conditions: HI-HeLa cells infected with HRV-14, m.o.i. 0.13; two days; XTT; read-out: EC50
Procedure: In the Cell Protection Assay, the ability of compounds to protect cells against HRV infection was measured by the XTT dye reduction method. This method is described in Weislow, O. S., R. Kiser, D. L. Fine, J. Bader, R. H. Shoemaker, and M. R. Boyd, J. Natl. Cancer Inst. 1989, 81, 577-586, which is incorporated herein by reference.
as §1, §2
The compounds were tested against control compounds WIN 51711, WIN 52084, and WIN 54954, all obtained from Sterling-Winthrop Pharmaceuticals, and control compound Pirodavir, obtained from Janssen Pharmaceuticals.

[2] = mock-infected HI-HeLa cells, two days, XTT, read-out: CC50
[3] = RVP serotype-14, 10 minute preincubation, substrate start, read-out: INHIB (Ki)

T1 sequence (P03303 1538-1719): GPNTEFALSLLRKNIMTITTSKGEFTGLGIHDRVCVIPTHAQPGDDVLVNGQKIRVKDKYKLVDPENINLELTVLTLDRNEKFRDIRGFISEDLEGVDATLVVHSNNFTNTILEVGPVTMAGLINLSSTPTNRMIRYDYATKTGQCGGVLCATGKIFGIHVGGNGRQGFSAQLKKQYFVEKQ

CC(C)C[C@H](NC(=O)OCc1ccccc1)C(=O)N[C@@H](Cc1ccccc1)C(=O)N[C@H](/C=C/C(=O)N1CCCCO1)CCC(N)=O [Compound 84]
kobs/I ([1]; RVP serotype-14): 18,650 M-1 sec-1 | CC50 (HI-HeLa cells; [2]): > 320 µM | EC50 (HRV-14): 16 µM

CC(=O)N1CC/C(=C\[C@H](CCC(N)=O)NC(=O)[C@H](Cc2ccccc2)NC(=O)[C@H](CC(C)C)NC(=O)OCc2ccccc2)C1=O [Compound 164]
kobs/I ([1]; RVP serotype-14): 155,500 M-1 sec-1 | CC50 (HI-HeLa cells): > 100 µM | EC50 (HRV-14): 0.71 µM

Cc1cc(CCCCCCCOc2ccc(C3=N[C@@H](C)CO3)cc2)on1 [WIN 52084, reference compound]
CC50 (HI-HeLa cells; [2]): > 10 µM | EC50 (HRV-14): 0.07 µM

CC(C)C[C@H](NC(=O)OCc1ccccc1)C(=O)N[C@@H](Cc1ccccc1)C(=O)N[C@H](/C=C/[N+](=O)[O-])CCC(N)=O [Compound 125]
kobs/I ([1]; RVP serotype-14): >500,000 M-1 sec-1 | CC50 (HI-HeLa cells): 100 µM | EC50 (HRV-14): > 100 µM

CCOC(=O)/C=C/[C@H](CCC(N)=O)NC(=O)[C@H](CC(C)C)NC(=O)[C@H](CC(C)C)NC(=O)OCc1ccccc1 [Compound 141]
kobs/I ([1]; RVP serotype-14): 2,309 M-1 sec-1 | CC50 (HI-HeLa cells): > 320 µM | EC50 (HRV-14): 5.4 µM

CCOC(=O)C=CC(CCC(N)=O)NC(=O)C(Cc1ccccc1)NC(=O)C(NC(=O)OCc1ccccc1)c1ccccc1 (centres unmarked) [Compound 71]
kobs/I ([1]; RVP serotype-14): 20,650 M-1 sec-1 | CC50 (HI-HeLa cells): > 320 µM | EC50 (HRV-14): 14.1 µM

CCOC(=O)/C=C/[C@H](CCC(N)=O)NC(=O)[C@@H](NC(=O)[C@H](CC(C)C)NC(=O)OCc1ccccc1)C(C)O (some centres unmarked) [Compound 134]
kobs/I ([1]; RVP serotype-14): 1,769 M-1 sec-1 | CC50 (HI-HeLa cells): > 320 µM | EC50 (HRV-14): 56.2 µM

CCOC(=O)/C=C/[C@H](CCC(N)=O)NC(=O)[C@H](Cc1ccccc1)NC(=O)[C@H](C)NC(=O)OCc1ccccc1 [Compound 101]
kobs/I ([1]; RVP serotype-14): 11,288 M-1 sec-1 | CC50 (HI-HeLa cells; [2]): > 320 µM | EC50 (HRV-14): 2 µM

CC(C)C[C@H](NC(=O)OCc1ccccc1)C(=O)N[C@@H](Cc1ccccc1)C(=O)N[C@H](/C=C/c1ccno1)CCC(N)=O [Compound 150]
kobs/I ([1]; RVP serotype-14): 573 M⁻¹ s⁻¹ | CC50 (HI-HeLa cells; [2]): > 320 µM | EC50 (HRV-14): > 320 µM

CCOC(=O)/C=C/[C@H](CCC(N)=O)NC(=O)[C@H](Cc1ccc(C(N)=O)cc1)NC(=O)[C@H](CC(C)C)NC(=O)OCc1ccccc1 [Compound 133]
kobs/I ([1]; RVP serotype-14): 9,600 M-1 sec-1 | CC50 (HI-HeLa cells): 177 µM | EC50 (HRV-14): > 177 µM

CC(C)C[C@H](NC(=O)OCc1ccccc1)C(=O)N[C@@H](Cc1ccccc1)C(=O)N[C@H](/C=C/CSc1ccccn1)CCC(N)=O [Compound 75]
CC50 (HI-HeLa cells): > 100 µM | EC50 (HRV-14): 5 µM

CCOC(=O)/C=C/[C@H](CCC(N)=O)NC(=O)[C@H](C)NC(=O)[C@H](CC(C)C)NC(=O)OCc1ccccc1 [Compound 109]
kobs/I ([1]; RVP serotype-14): 1,348 M-1 sec-1 | CC50 (HI-HeLa cells): > 320 µM | EC50 (HRV-14): 20 µM

CC(=O)N1CC/C(=C\[C@H](CCC(N)=O)NC(=O)[C@H](Cc2ccc(F)cc2)NC(=O)[C@H](CSc2ccccc2)NC(=O)SC2CCCC2)C1=O [Compound 181]
kobs/I ([1]; RVP serotype-14): 1,000,000 M-1 sec-1 | CC50 (HI-HeLa cells): > 100 µM | EC50 (HRV-14): 0.1 µM

CCOC(=O)C=CC(CCC(N)=O)NC(=O)C(Cc1ccccc1)NC(=O)C(NC(=O)SC1CCCC1)C(C)(C)[S+](C)[O-] (mixture of isomers) [Compound 179, Ethyl-3-(Cyclopentylthiocarbonyl-L-[S(O)-Me-Pen]-L-Phe-L-Gln)-E-Propenoate]
Ki [1, 3]: 0.36 µM | kobs/I ([1]; RVP serotype-14): 300,000 M-1 sec-1 | CC50 (HI-HeLa cells): > 100 µM | EC50 (HRV-14): 1.78 µM

CCOP(=O)(/C=C/[C@H](CCC(N)=O)NC(=O)[C@H](Cc1ccccc1)NC(=O)[C@H](CC(C)C)NC(=O)OCc1ccccc1)OCC [Compound 20, Diethyl-[2-(CBZ-L-Leu-L-Phe-L-Gln)-E-Vinyl] Phosphonate]
CC50 (HI-HeLa cells; [2]): > 320 µM | EC50 (HRV-14): > 320 µM

COc1ccc(C(=O)/C=C/[C@H](CCC(N)=O)NC(=O)[C@H](Cc2ccccc2)NC(=O)[C@H](CC(C)C)NC(=O)OCc2ccccc2)cc1 [Compound 42]
kobs/I ([1]; RVP serotype-14): 150,000 M-1 sec-1 | CC50 (HI-HeLa cells): 100 µM | EC50 (HRV-14): 22.4 µM

CCOC(=O)/C=C/[C@H](CCC(N)=O)NC(=O)[C@H](Cc1ccccc1)NS(=O)(=O)Cc1ccccc1 [Compound 32, Ethyl-3-[N-(Benzylsulfonyl)-L-Phe-L-Gln]-E-Propenoate]
kobs/I ([1]; RVP serotype-14): 280 M⁻¹ s⁻¹ | CC50 (HI-HeLa cells): > 100 µM | EC50 (HRV-14): 10 µM

CCOC(=O)/C=C/[C@H](CCC(N)=O)NC(=O)[C@H](Cc1ccc(OC(C)=O)cc1)NC(=O)[C@H](CC(C)C)NC(=O)OCc1ccccc1 [Compound 100]
kobs/I ([1]; RVP serotype-14): 1,200 M-1 sec-1 | CC50 (HI-HeLa cells; [2]): > 320 µM | EC50 (HRV-14): 11.1 µM

CCOC(=O)/C=C/[C@H](CCC(N)=O)NC(=O)[C@H](Cc1cccc(F)c1)NC(=O)c1cc2c(OC)cccc2[nH]1 [Compound 28, Ethyl-3-[N-(4-Methoxyindole-2-Carbonyl)-L-(3-F-Phe)-L-Gln]-E-Propenoate]
Ki [1, 3]: 57 µM | kobs/I ([1]; RVP serotype-14): 4,000 M-1 sec-1 | CC50 (HI-HeLa cells): 63.1 µM | EC50 (HRV-14): 4.5 µM

CCNC(=O)/C=C/[C@H](CCC(N)=O)NC(=O)[C@H](Cc1ccccc1)NC(=O)[C@H](CC(C)C)NC(=O)OCc1ccccc1 [Compound 6, N-Ethyl-3-(CBZ-L-Leu-L-Phe-L-Gln)-E-Propenamide]
Ki [1, 3]: 32 µM | kobs/I ([1]; RVP serotype-14): 350 M⁻¹ s⁻¹ | CC50 (HI-HeLa cells): > 320 µM | EC50 (HRV-14): > 320 µM

CCOC(=O)/C=C/[C@H](CCC(N)=O)NC(=O)[C@H](Cc1ccc(OCC)cc1)NC(=O)[C@H](CC(C)C)NC(=O)OCc1ccccc1 [Compound 136]
kobs/I ([1]; RVP serotype-14): 4,210 M-1 sec-1 | CC50 (HI-HeLa cells): > 320 µM | EC50 (HRV-14): > 320 µM

CCOC(=O)/C=C/[C@H](CCC(N)=O)NC(=O)[C@H](Cc1ccc(C)cc1)NC(=O)[C@@H](NC(=O)SC1CCCC1)C(C)(C)C [Compound 174, Ethyl-3-[Cyclopentylthiocarbonyl-L-α-(t-Butyl-Gly)-L-(4-Me-Phe)-L-Gln]-E-Propenoate]
CC50 (HI-HeLa cells; [2]): > 100 µM | EC50 (HRV-14): 0.056 µM

CCOC(=O)/C=C/[C@H](CCC(N)=O)NC(=O)[C@H](Cc1ccccc1)NS(=O)(=O)CC [Compound 33, Ethyl-3-[N-(Ethylsulfonyl)-L-Phe-L-Gln]-E-Propenoate]
INHIB (percent inhibition) ([1]; RVP serotype-14, 10 μM compound): 24(10) percent | kobs/I ([1]; RVP serotype-14): 33 M⁻¹ s⁻¹ | CC50 (HI-HeLa cells): > 100 µM

Cc1cc(CCCCCCCOc2ccc(C3=NCCO3)cc2)on1 [WIN 51711, reference compound]
CC50 (HI-HeLa cells; [2]): > 60 µM | EC50 (HRV-14): 0.78 µM

CCOC(=O)/C(F)=C\[C@H](CCC#N)NC(=O)[C@H](Cc1ccccc1)NC(=O)[C@H](CC(C)C)NC(=O)OCc1ccccc1 [Compound 1, Ethyl-2-Fluoro-3-[CBZ-L-Leu-L-Phe-L-(Cyanomethyl)-Ala]-E-Propenoate]
INHIB (percent inhibition) ([1]; RVP serotype-14): 77 (50) percent

Cc1ccc(CC(NC(=O)C(NC(=O)SC2CCCC2)C(C)(C)C)C(=O)NC(C=CC(=O)OCc2ccccc2)CCC(N)=O)cc1 (centres unmarked) [Compound 186]
kobs/I ([1]; RVP serotype-14): 950,000 M-1 sec-1

CCOC(=O)/C=C/[C@H](CCC(N)=O)NC(=O)[C@H](Cc1ccc(C)cc1)NC(=O)[C@@H](NC(=O)OC1CCCC1)C(C)(C)C [Compound 190]
kobs/I ([1]; RVP serotype-14): 29,230 M-1 sec-1

CC(C)C[C@H](NC(=O)OCc1ccccc1)C(=O)N[C@@H](Cc1ccccc1)C(=O)NC(/C=C/C#N)CCC(N)=O (mixture of isomers) [Compound 14, 3-(CBZ-L-Leu-L-Phe-DL-Gln)-E-Propenonitrile]
CC50 (HI-HeLa cells): 500 µM | EC50 (HRV-14): 17.8 µM

COCCOC(=O)/C=C/[C@H](CCC(N)=O)NC(=O)[C@H](Cc1ccc(C)cc1)NC(=O)[C@@H](NC(=O)SC1CCCC1)C(C)(C)C [Compound 188]
Ki [1]: 0.16 µM | kinact/KI ([1]; pH 7.6, read-out: kobs/I): 580000 M⁻¹ s⁻¹

CC(=O)N1CC/C(=C\[C@H](CCC(N)=O)NC(=O)[C@H](Cc2ccc(F)cc2)NC(=O)[C@@H](NC(=O)SC2CCCC2)C(C)(C)C)C1=O [Compound 189]
kobs/I ([1]; RVP serotype-14): 386,000 M-1 sec-1

C/C(=C\[C@H](CCC(N)=O)NC(=O)[C@H](Cc1ccccc1)NC(=O)[C@H](CC(C)C)NC(=O)OCc1ccccc1)C(=O)O [Compound 144]
CC50 (HI-HeLa cells): > 320 µM | EC50 (HRV-14): 104 µM
